One compound from US20240083933A1, “DISACCHARIDES FOR TREATING BONE DISEASES” (UNIVERSITE DE PICARDIE JULES VERNE, priority 2020, published 2024) can be followed below.

Holding throughout (assay type): cell-based, human
Data set [1] relates to HOb cells. Put plainly: Cytotoxicity, WST-1 test. As to conditions: 30 μM, culture or mineralizing medium, D2, D4, D7, D14. The protocol:
The toxicity of DP2 has also been studied by another cell viability test: WST-1 (a tetrazolium salt). The HOb cells were seeded in 48-well plates (10,000 cells per well), two days later, the cells were treated with DP2 30 μM and the WST-1 test was carried out on D2, D4, D7 and D14 post-treatment.
At the end of the treatment, 100 μl of the diluted WST-1 solution (Roche Diagnostics) was added to each well and the plate is incubated at 37° C. with 5% CO2 for 1 h. The cell proliferation induces an increase in the activity of mitochondrial dehydrogenases, which cleaves the tetrazolium salt into formazan. The amount of formazan dye was quantified by measuring the absorbance of dye at 450 nm (Envision, PerkinElmer). The results are expressed as percentage of viability in comparison to the untreated control condition.
(§1) Before determining whether our molecule alters the survival of osteoblastic cells, its cytotoxicity was tested on the HOb cells by the MTT and WST-1 tests. The cells were treated with DP2 at 30 μM with the culture medium (Ctrl) or the mineralizing medium (Min) for 2, 4, 7 and 14 days (D).
A general note: Tetrazolium dyes change colour on reduction, which living cells bring about.

Data set [2] has as its system HOb cells. Put plainly: Cytotoxicity, MTT test. The settings on record: 30 μM, culture or mineralizing medium, D2, D4, D7, D14. The protocol:
In order to study the toxicity of DP2, cell viability was determined using the MTT test (3-(4,5-dimethyl-2-thiazolyl)-2,5-diphenyl-2H-tetrazolium bromide). The HOb cells were seeded in 48-well plates (10,000 cells per well), two days later the cells were treated with DP2 30 μM and the MTT test was carried out on D2, D4, 7 and D14 post-treatment.
After washing the cells with DMEM (Dulbecco's Modified Eagle Medium) without phenol red, 250 μl of the diluted MTT solution were added to each well and the plate is incubated at 37° C. with 5% CO2 for 1 hour. The amount of MTT reduced in formazan is proportional to living cells. The purple formazan crystals were solubilized in 220 μl of DMSO and after stirring to homogenize the coloration, the absorbance was measured at 560 nm (Envision, PerkinElmer). The cytotoxicity was assessed by comparing the cell viability between the control group and the experimental group.
as §1

Data set [3] deals with HOb cells. Put plainly: Alkaline phosphatase (ALP) enzymatic activity assay, HOb. The settings on record: 7 days post-treatment, 30 μM. From the text: ALP is an enzyme synthesized by osteoblasts. It hydrolyses phosphoric esters which inhibit the mineralization by releasing a hydroxyl group and a phosphate. The osteoblasts produce matrix vesicles, reservoirs of alkaline phosphatases and ions, which, when released into the extracellular medium, would initiate the mineralization of the osteoid tissue by promoting the local concentrations of calcium ions and phosphates. Cells have been seeded in 6-well plates at 63700 cells/well for MC3T3-E1 and at 182000 cells/well for HOb.
After the PBS rinses, 50 μl of ALP Assay Buffer were added to the wells, the bottom of the wells was scraped and then the 50 μl were taken. A centrifugation for 3 minutes at 13000 G was carried out to remove the insoluble material. In a 96-well plate, 10 μl of each sample to be tested are placed with 70 μl of the ALP Assay buffer and 50 μl of the 5 mM pNPP solution. In parallel, the calibration range was prepared by placing, in the same 96-well plate. The reaction was incubated for 60 min at 25° C., shielded from light. The reaction was stopped by adding 20 μl of the Stop Solution. The optical density was measured at 405 nm.
After the ALP enzymatic activity assay, a protein assay was performed in order to normalize the results of the ALP assay depending on the number of proteins. […] The optical density was measured at 565 nm to determine the amount of proteins.

`CCCO[C@H]1OC(CO)[C@@H](O[C@@H]2OC(CO)[C@@H](O)C(O)C2NC(C)=O)C(O)C1OC(C)=O` (stereo partly drawn) [DP2, n-propyl, 2-O-acetyl-α-D-Glucopyranoside, 4-O-(2-acetamido-2-deoxy-β-D-glucopyranosyl)]: the “cell viability, WST-1 test” value in the data set on HOb cells [1] was “no significant difference”. For the same compound, the “cell viability, MTT test” value with HOb cells [2] is on record as “no significant difference”. In addition, the “ALP enzymatic activity relative to the mineralized medium alone (100%)” value with HOb cells [3] (listed as DP2R0) was found to be 210.494±14.979%; in the data set on HOb cells [3] (listed as DP2R2) it was 149.749%.
